Assay results taken from US11780832B2, “Lactivicin compounds, their preparation and use as antibacterial agents” (priority 2021, dated 2023).
Converted amounts (≈) assume the structure as drawn.

What was measured:
Format in all cases: cell-based
[1] = test system: Citrobacter freundii species complex OXA-181; test: MIC, CLSI broth microdilution; conditions: Citrobacter freundii species complex, OXA-181; read-out: MIC
How it was run: (§1)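 Inhibitory concentrations were measured in broth following CLSI microdilution rules. Test organisms, each with known resistance determinants, were inoculated at a final 5×10^5 CFU/mL into wells holding compound at final concentrations from 16 down to 0.0125 μg/mL.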

[2] = test system: Escherichia coli ATCC 25922; test: MIC, CLSI broth microdilution; conditions: ATCC25922
How it was run: as §1

[3] = test system: Escherichia coli CTX-M-15; test: MIC, CLSI broth microdilution; conditions: CTXM15
How it was run: as §1

[4] = test system: Klebsiella aerogenes VIM-1, SHV-12; test: MIC, CLSI broth microdilution
How it was run: as §1

[5] = test system: Klebsiella oxytoca KPC-2, TEM-1; test: MIC, CLSI broth microdilution; conditions: KPC-2, TEM-1, read-out: MIC
How it was run: as §1

[6] = test system: Klebsiella pneumoniae KPC-2; test: MIC, CLSI broth microdilution; conditions: KPC2
How it was run: as §1

[7] = test system: Klebsiella pneumoniae KPC-3; test: MIC, CLSI broth microdilution; conditions: KPC3, KPC-3, read-out: MIC
How it was run: as §1

[8] = test system: Klebsiella pneumoniae OXA-163, OXA-1_OXA-30, SHV-1, TEM-1; test: MIC, CLSI broth microdilution
How it was run: (§2)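 Broth microdilution following CLSI guidance was used to obtain MICs. Bacteria, recovered through two passages from skim-milk stocks held at −80 °C, were exposed to doubling dilutions of compound (final 16-0.0125 μg/mL).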

[9] = test system: Klebsiella pneumoniae OXA-48, SHV-1; test: MIC, CLSI broth microdilution
How it was run: as §2

[10] = test system: Klebsiella pneumoniae SHV-12; test: MIC, CLSI broth microdilution; conditions: SHV12, SHV-12, read-out: MIC
How it was run: as §1

[11] = test system: Pseudomonas aeruginosa ATCC 27853; test: MIC, CLSI broth microdilution; conditions: ATCC27853
How it was run: as §1

[12] = test system: Pseudomonas aeruginosa AmpC overexpressed; test: MIC, CLSI broth microdilution
How it was run: as §2

[13] = test system: Pseudomonas aeruginosa OprD negative; test: MIC, CLSI broth microdilution
How it was run: as §2

[14] = test system: Serratia marcescens AmpC overexpressed; test: MIC, CLSI broth microdilution
How it was run: as §2

[15] = test system: Serratia marcescens SME-2; test: MIC, CLSI broth microdilution; conditions: SME2
How it was run: as §1

[16] = test system: Citrobacter freundii species complex Elevated AmpC; test: MIC against Elevated AmpC producing strains, compound alone; conditions: row r16
Method: (§3) Gram-negative and Gram-positive bacterial strains used during the in vitro minimum inhibitory concentration (MIC) determination were obtained either from the American Type Culture Collection (ATCC) or from clinical specimens. All strains were characterized genotypically and the respective antibiotic resistance markers for each strain were identified.
(§4) Isolates were sub-cultured onto appropriate media and stocked in skim milk at −80° C. Following two subcultures from frozen stock, in vitro antimicrobial susceptibility testing was performed using the Clinical and Laboratory Standards Institute (CLSI) broth microdilution method. Briefly, fresh cultures were suspended in culture media to give a final stock inoculum size of 5×10^7 colony forming units per milliliter of broth (CFU/mL). Test compounds were prepared at a stock solution concentration equal to 128 μg/mL, then diluted to give a final an initial working concentration of 32 μg/mL. 100 μL of the stock solutions were added to the first wells in a 96-well plate and were then diluted using a 2-fold dilution method to give a range of 32-0.025 μg/mL. 100 μL of the bacterial suspensions were then added to the 96-well plates to give a final working inoculum size of 5×10^5 CFU/mL. The final compound concentration range was 16-0.0125 μg/mL. […] MICs for comparator agents were determined using custom-designed, in-house prepared 96-well broth microdilution panels.

[17] = test system: Enterobacter cloacae species complex Elevated AmpC; test: as above
Method: as §3, §4

[18] = test system: Escherichia coli Elevated AmpC; test: as above
Method: as §3, §4

[19] = test system: Citrobacter freundii species complex Elevated AmpC; test: Synergistic activity: MIC in the presence of Avibactam; conditions: row r16, in the presence of Avibactam @ 4 μg/mL
Method: as §4
(§5) The same method used to test the activity of the claimed compounds was used to determine their synergistic activity when combined with a β-lactamase inhibitor except that either a fixed concentration or fixed ratio of a β-lactamase inhibitor was added to the 96-well plates prior to adding the bacteria cultures. Synergistic activity was defined as the reduction of MIC of a given compound when tested using the β-lactamase inhibitor versus testing the compound in the absence of a β-lactamase inhibitor.

[20] = test system: Enterobacter cloacae species complex Elevated AmpC; test: as above
Method: as §4, §5

Escherichia coli CMY-DHA = test: as above
Method: as §4, §5

[21] = test system: Escherichia coli Elevated AmpC; test: as above
Method: as §4, §5

[22] = test system: Klebsiella pneumoniae CMY-DHA; test: as above; conditions: row r32, in the presence of Avibactam @ 4 μg/mL
Method: as §4, §5

[23] = test system: Proteus mirabilis CMY-DHA; test: as above; conditions: row r36, in the presence of Avibactam @ 4 μg/mL
Method: as §4, §5

[24] = in the presence of Avibactam @ 4 μg/mL
[25] = strain of row r7, in the presence of Avibactam @ 4 μg/mL
[26] = strain of row r20, in the presence of Avibactam @ 4 μg/mL
[27] = strain of row r26, in the presence of Avibactam @ 4 μg/mL
[28] = strain of row r27, in the presence of Avibactam @ 4 μg/mL
[29] = strain of row r28, in the presence of Avibactam @ 4 μg/mL
[30] = strain of row r29, in the presence of Avibactam @ 4 μg/mL
[31] = strain of row r30, in the presence of Avibactam @ 4 μg/mL
[32] = strain of row r31, in the presence of Avibactam @ 4 μg/mL
[33] = strain of row r34, in the presence of Avibactam @ 4 μg/mL
[34] = strain of row r35, in the presence of Avibactam @ 4 μg/mL
[35] = strain of row r10, in the presence of Avibactam @ 4 μg/mL
[36] = strain of row r11, in the presence of Avibactam @ 4 μg/mL
[37] = strain of row r12, in the presence of Avibactam @ 4 μg/mL
[38] = strain of row r13, in the presence of Avibactam @ 4 μg/mL
[39] = strain of row r14, in the presence of Avibactam @ 4 μg/mL
[40] = strain of row r15, in the presence of Avibactam @ 4 μg/mL

`CC(C)(O/N=C(\C(=O)N[C@@H]1C(=O)N2C(C(=O)[O-])=C(C[n+]3ccccc3)CS[C@H]12)c1csc(N)n1)C(=O)O` [Ceftazidime, ceftazidime, reference compound] gave an MIC [1] of 8 µg/mL (≈ 14.6 µM), an MIC [2] of 0.25 µg/mL (≈ 0.457 µM) and an MIC [3] of 4 µg/mL (≈ 7.32 µM). It also gave an MIC [4] of over 32 µg/mL, an MIC [5] of 1 µg/mL (≈ 1.83 µM) and an MIC [6] of over 32 µg/mL. The MIC [7] was over 32 µg/mL, the MIC [8] was over 32 µg/mL and the MIC [9] was 0.5 µg/mL (≈ 0.915 µM). For the same molecule, the MIC [10] was over 32 µg/mL, the MIC [11] was 1 µg/mL (≈ 1.83 µM) and the MIC [12] was 8 µg/mL (≈ 14.6 µM). For the same molecule, the MIC [13] was 2 µg/mL (≈ 3.66 µM), the MIC [14] was 0.5 µg/mL (≈ 0.915 µM) and the MIC [15] was 0.25 µg/mL (≈ 0.457 µM). The MIC [16] was over 32 µg/mL, the MIC [17] was 16 µg/mL (≈ 29.3 µM) and the MIC ([17]; strain of row r7) was over 32 µg/mL. It also gave an MIC ([17]; strain of row r20) of 16 µg/mL (≈ 29.3 µM), an MIC ([18]; strain of row r10) of 8 µg/mL (≈ 14.6 µM) and an MIC ([18]; strain of row r11) of 8 µg/mL (≈ 14.6 µM). The MIC ([18]; strain of row r12) was 8 µg/mL (≈ 14.6 µM), the MIC ([18]; strain of row r13) was 4 µg/mL (≈ 7.32 µM) and the MIC ([18]; strain of row r14) was 16 µg/mL (≈ 29.3 µM). It also gave an MIC ([18]; strain of row r15) of 16 µg/mL (≈ 29.3 µM), an MIC [19] of 0.25 µg/mL and an MIC [20, 24] of 0.25 µg/mL. For the same molecule, the MIC [20, 25] was 0.5 µg/mL, the MIC [20, 26] was 0.03 µg/mL and the MIC (Escherichia coli CMY-DHA; [27]) was 0.5 µg/mL. The MIC (Escherichia coli CMY-DHA; [28]) was 0.5 µg/mL, the MIC (Escherichia coli CMY-DHA; [29]) was 0.06 µg/mL and the MIC (Escherichia coli CMY-DHA; [30]) was 0.12 µg/mL. For the same molecule, the MIC (Escherichia coli CMY-DHA; [31]) was “<=0.015 μg/mL”, the MIC (Escherichia coli CMY-DHA; [32]) was 0.12 µg/mL and the MIC (Escherichia coli CMY-DHA; [33]) was 0.5 µg/mL. The MIC (Escherichia coli CMY-DHA; [34]) was 0.25 µg/mL, the MIC [21, 35] was 0.12 µg/mL and the MIC [21, 36] was 0.06 µg/mL. The MIC [21, 37] was 0.12 µg/mL, the MIC [21, 38] was 0.12 µg/mL and the MIC [21, 39] was 0.12 µg/mL. For the same molecule, the MIC [21, 40] was 0.5 µg/mL, the MIC [22] was 0.12 µg/mL and the MIC [23] was 0.12 µg/mL.
Molecule `Nc1nc(/C(=N/OC2(C(=O)O)CCC(F)(F)CC2)C(=O)N[C@H]2CON(C3(C(=O)O)C[C@H](N4C(=O)c5cc(O)c(O)cc5C4=O)C(=O)O3)C2=O)cs1` (stereo partly drawn) [Cmpd 10, (4S)-2-[(4S)-4-{[(2Z)-2-(2-amino-1,3-thiazol-4-yl)-2-{[(1-carboxy-4,4-difluorocyclohexyl)oxy]imino}acetyl]amino}-3-oxo-1,2-oxazolidin-2-yl]-4-(5,6-dihydroxy-1,3-dioxo-1,3-dihydro-2H-isoindol-2-yl)-5-oxooxolane-2-carboxylic acid] has an MIC [1] of at most 0.015 µg/mL, an MIC [2] of 0.12 µg/mL (≈ 0.162 µM) and an MIC [3] of 1 µg/mL (≈ 1.35 µM). For the same molecule, the MIC [4] was 0.12 µg/mL (≈ 0.162 µM), the MIC [5] was at most 0.015 µg/mL and the MIC [6] was 0.03 µg/mL (≈ 0.0406 µM). It also gave an MIC [7] of 0.06 µg/mL (≈ 0.0812 µM), an MIC [8] of 0.06 µg/mL (≈ 0.0812 µM) and an MIC [9] of at most 0.015 µg/mL. For the same molecule, the MIC [10] was at most 0.015 µg/mL, the MIC [11] was 0.12 µg/mL (≈ 0.162 µM) and the MIC [12] was 2 µg/mL (≈ 2.71 µM). The MIC [13] was 0.25 µg/mL (≈ 0.338 µM), the MIC [14] was 0.12 µg/mL (≈ 0.162 µM) and the MIC [15] was 0.06 µg/mL (≈ 0.0812 µM). It also gave an MIC [16] of 0.25 µg/mL (≈ 0.338 µM), an MIC [17] of 0.5 µg/mL (≈ 0.677 µM) and an MIC ([17]; strain of row r7) of 4 µg/mL (≈ 5.42 µM). The MIC ([17]; strain of row r20) was 0.12 µg/mL (≈ 0.162 µM), the MIC ([18]; strain of row r10) was 0.015 µg/mL (≈ 0.0203 µM) and the MIC ([18]; strain of row r11) was 0.12 µg/mL (≈ 0.162 µM). The MIC ([18]; strain of row r12) was 0.12 µg/mL (≈ 0.162 µM), the MIC ([18]; strain of row r13) was 0.03 µg/mL (≈ 0.0406 µM) and the MIC ([18]; strain of row r14) was 0.03 µg/mL (≈ 0.0406 µM). For the same molecule, the MIC ([18]; strain of row r15) was 0.25 µg/mL (≈ 0.338 µM), the MIC [19] was 0.03 µg/mL and the MIC [20, 24] was 0.06 µg/mL. For the same molecule, the MIC [20, 25] was 0.12 µg/mL, the MIC [20, 26] was “<=0.008 μg/mL” and the MIC (Escherichia coli CMY-DHA; [27]) was 0.06 µg/mL. For the same molecule, the MIC (Escherichia coli CMY-DHA; [28]) was “<=0.008 μg/mL”, the MIC (Escherichia coli CMY-DHA; [29]) was 0.03 µg/mL and the MIC (Escherichia coli CMY-DHA; [30]) was 0.06 µg/mL. The MIC (Escherichia coli CMY-DHA; [31]) was “<=0.008 μg/mL”, the MIC (Escherichia coli CMY-DHA; [32]) was 0.06 µg/mL and the MIC (Escherichia coli CMY-DHA; [33]) was 0.015 µg/mL. The MIC (Escherichia coli CMY-DHA; [34]) was 0.015 µg/mL, the MIC [21, 35] was “<=0.008 μg/mL” and the MIC [21, 36] was 0.03 µg/mL. For the same molecule, the MIC [21, 37] was 0.03 µg/mL, the MIC [21, 38] was “<=0.008 μg/mL” and the MIC [21, 39] was “<=0.008 μg/mL”. It also gave an MIC [21, 40] of 0.06 µg/mL, an MIC [22] of 0.25 µg/mL and an MIC [23] of 0.5 µg/mL.
